Starred links: 1 amine or outer side, 2 acyl side, 3 side chain; linkers in the order of their positions; H or OH if unused. Non-standard residues stand in square brackets, D forms with d. Residues, ends and D or L forms follow the SMILES beside them. *: point of attachment. X2 = CCCCCCCCCCCC(=O)NCCOCCOCCOCCOCCOCCn1cc(CC(=O)*)nn1; Ala(1-Me-3-pyridinium) = C[n+]1cccc(C[C@H](N)C(=O)O)c1; X11 = O=C(c1nnc([C@H](Cc2ccccc2)N[*:1])[nH]1)[*:2]; X14 = O=C(c1cnc([C@H](Cc2ccccc2)N[*:1])[nH]1)[*:2]; dPhe(2,4-Cl2) = N[C@H](Cc1ccc(Cl)cc1Cl)C(=O)O; dPhe(3-Cl) = N[C@H](Cc1cccc(Cl)c1)C(=O)O; X12 = O=C([C@@H]1Cc2ccccc2N1[*:1])[*:2]; Ala(2-furyl) = N[C@@H](Cc1ccco1)C(=O)O; Phe(4-F) = N[C@@H](Cc1ccc(F)cc1)C(=O)O; Pro(4,4-F2) = O=C(O)[C@@H]1CC(F)(F)CN1; dAla(2-furyl) = N[C@H](Cc1ccco1)C(=O)O; dPhe(4-F) = N[C@H](Cc1ccc(F)cc1)C(=O)O; X9 = CC(C)CC(C(=O)[*:2])C(=S)NCN[*:1]; Arg(Me) = CNC(=N)NCCC[C@H](N)C(=O)O; Hyp = O=C(O)[C@@H]1C[C@@H](O)CN1; 2Thi = N[C@@H](Cc1cccs1)C(=O)O; NMeL = CN[C@@H](CC(C)C)C(=O)O; Ac6c = NC1(C(=O)O)CCCCC1; Aze = O=C(O)[C@@H]1CCN1; azaGly = NNC(=O)O; βAla = NCCC(=O)O
target: T1, human kiss1 receptor (GPR54) (Homo sapiens, UniProt Q969F8); test: Kiss1 receptor (GPR54) binding activity of agonists, FRET detection in NFAT-bla CHO-K1 cells; format: cell-based; settings: GPR54; measured according to the method of effect Embodiment 1; preliminary data; read-out: Preliminary measurement data (GPR54) EC50
T1 construct: host or cells: NFAT-bla CHO-K1 cells (Chinese hamster ovary), purchased recombinant cell line
T1 sequence (Q969F8 whole entry): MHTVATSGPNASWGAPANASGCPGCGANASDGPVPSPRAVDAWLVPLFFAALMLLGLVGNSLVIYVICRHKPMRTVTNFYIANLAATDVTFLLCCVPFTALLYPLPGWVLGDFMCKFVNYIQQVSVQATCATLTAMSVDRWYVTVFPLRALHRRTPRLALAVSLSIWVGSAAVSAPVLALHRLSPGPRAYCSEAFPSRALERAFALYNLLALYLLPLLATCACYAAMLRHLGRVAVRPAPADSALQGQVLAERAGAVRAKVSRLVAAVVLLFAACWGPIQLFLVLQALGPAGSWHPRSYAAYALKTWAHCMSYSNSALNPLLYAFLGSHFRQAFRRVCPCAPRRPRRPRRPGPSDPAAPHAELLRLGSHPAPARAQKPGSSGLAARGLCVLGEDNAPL
Protocol: Effect Embodiment 1 Determination of Kiss1 Receptor (GPR54) Binding Activity of Kiss1 Receptor (GPR54) Agonist
The binding activity test of each compound from the above the embodiments with kiss1 receptor (GPR54) was performed by fluorescence energy resonance transfer (FRET) detection technology to detect EC50 values of polypeptides and peptide analogs. The cells used in this experiment were NFAT-bla CHO-K1 cells (k1720, invitrogen, thermosher) that express human kiss1 receptor (GPR54). The specific operations were as follows:
Day 1: Seeding Cells in Plate
1. Microscope (CKX41, OLYMPUS), object lens×4 times, ocular lens×10 times. The cells were ensured in a good condition.
2. Digesting the cells, adding 3 ml of 0.05% pancreatin into a culture dish; cells were placed in a 37° C., 5% CO2 incubator for 2 minutes (Thermo Fisher). After the cells became round under the microscope, 7 ml of culture medium was added. The formula of culture medium was as follows: DMEM 90%, dialzedfbS10, NEAA 0.1 mM, HEPES 25 mM, Penicillin 100 U/ml, Streptomycin 100 μm/ml, pH7.3. After blowing and stirring, it was transferred to 15 mL centrifuge tube (430790, Corning). Centrifuge at 1000 rpm for 5 min (5810R, Eppendorf) and the supernatant was discard.
3. Adding 7 mL of culture medium (DMEM+0.1% BSA), it was pipetting into single cell suspension, after counting with Bio-RAD counter, the cell density was adjusted to 312,500 cells/ml.
4. Cells were inoculated into 384 well plates at 32 μL per well, and the cell number was controlled at 10000 cells/well. 32 μl of culture medium was added into the blank control.
Day 2: Dosing and Data Analysis
1) The compound to be tested was prepared into 50 mM working solution with DMSO.
2) 40 μl of the working solution of the compound to be tested was added into column 2 of row A-H of U-shaped 96-well plate (3797, comings), and 60 μl of DMSO was added into column 3-11. 20 μl of compound solution was sucked from the second column to the third column with a multichannel pipette blowing and stirring evenly; 20 μl of compound solution was absorbed from the third column with a multichannel pipette, then added into the fourth column, blowed and stirred to mix well; the compound was serially diluted 4-fold to a total of 10 concentrations. Column 1 and column 12 of 96-well plates were supplemented with 40 μl DMSO.
2. Intermediate Plate Configuration
1) AU-shaped 96-well plate was used, 199 μL of culture medium (DMEM+0.1% BSA) was added to each well, 1 μL of diluted compound (or DMSO) was sucked from 1000× compound plate and added into the 96-well plate at the corresponding position, blowed and stirred to mix well.
2) Homemade positive compounds and compounds to be tested were added. The cell culture plate was took out from the incubator and cells state was observed under microscope. Diluted compound in the intermediate plate or DMSO was added into the cell, 8 μl per well.
3) Cells were cultured in 37° C. and 5% CO2 for 4 hours.
3. The Substrate was Added to Detect the Binding of the Drug to the Receptor
1) 1 μmol/L CCF-4AM solution and buffer solution B, C, D were equilibrated to room temperature. LiveBLAZER™-FRET B/G Loading Kit (K1095, thermo Fisher) containing CCF-4AM and solution B, solution C, solution D were also available from Invitrogen (K1157, thermo Fisher).
2) 6× loading solution was prepared: 6 μl of CCF-4AM dissolved solution A, 60 μl of solution b, 904 μl of solution c, and 30 μl of solution D were pipetted into EP tube, blowed and stirred to mix well.
3) 8 μl of the above-mentioned liquid was sucked with a multichannel pipette, added into a 96-well plate, and incubated for 2 hours at room temperature.
4) The PerkinElmer detector was used to detect the luminous signals of each hole. FI mode, λex=409 nm, λem1=460 nm, λem2=530 nm.
4. Data Processing Using Graphpad Prism 5 (GraphPad Software. Inc)
Effective rate %=(Signal−Min)/(Max−Min)×100%.

EC50 [nM] | SMILES
1 | CNC(=N)NCCC[C@H](NC(=O)[C@H](CC(C)C)NC(=O)NNC(=O)[C@H](Cc1ccccc1)NC(=O)[C@@H](NC(=O)[C@H](CC(N)=O)NC(=O)[C@@H]1C[C@@H](O)CN1C(=O)[C@H](Cc1ccc[n+](C)c1)NC(C)=O)[C@@H](C)O)C(=O)N[C@@H](Cc1c[nH]c2ccccc12)C(N)=O [YA-239, Ac-[(S)-3-(2-amino-2-carboxyethyl)-1-methylpyridinium]-Hyp-Asn-Thr-Phe-azaGly-Leu-Arg(Me)-Trp-NH2] (Ac-[Ala(1-Me-3-pyridinium)][Hyp]NTF[azaGly]L[Arg(Me)]W-NH2)
3.89 | CNC(=N)NCCC[C@H](NC(=O)[C@H](CC(C)C)NC(=O)[C@@H]1CCN1C(=O)[C@H](Cc1ccccc1)NC(=O)[C@@H](NC(=O)[C@H](CC(N)=O)NC(=O)[C@@H]1C[C@@H](O)CN1C(=O)[C@H](Cc1ccc(F)cc1)NC(C)=O)[C@@H](C)O)C(=O)N[C@@H](Cc1c[nH]c2ccccc12)C(N)=O [YA-190, Ac-Phe(4-F)-Hyp-Asn-Thr-Phe-Aze-Leu-Arg(Me)-Trp-NH2] (Ac-[Phe(4-F)][Hyp]NTF[Aze]L[Arg(Me)]W-NH2)
0.68 | CNC(=N)NCCC[C@H](NC(=O)[C@H](CC(C)C)NC(=O)C1(NC(=O)[C@H](Cc2ccccc2)NC(=O)[C@@H](NC(=O)[C@H](CC(N)=O)NC(=O)[C@@H]2C[C@@H](O)CN2C(=O)[C@@H](Cc2ccc(F)cc2)NC(C)=O)[C@@H](C)O)CCCCC1)C(=O)N[C@@H](Cc1c[nH]c2ccccc12)C(N)=O [YA-195, Ac-[D-Phe(4-F)]-Hyp-Asn-Thr-Phe-A6c-Leu-Arg(Me)-Trp-NH2] (Ac-[dPhe(4-F)][Hyp]NTF[Ac6c]L[Arg(Me)]W-NH2)
1.85 | CNC(=N)NCCC[C@H](NC(=O)[C@H](CC(C)C)N(C)C(=O)CCNC(=O)[C@H](Cc1ccccc1)NC(=O)[C@@H](NC(=O)[C@H](CC(N)=O)NC(=O)[C@@H]1C[C@@H](O)CN1C(=O)[C@@H](Cc1ccc(Cl)cc1Cl)NC(C)=O)[C@@H](C)O)C(=O)N[C@@H](Cc1c[nH]c2ccccc12)C(N)=O [YA-187, Ac-[D-Phe(2,4-DiCl)]-Hyp-Asn-Thr-Phe-BetaAla-NMeLeu-Arg(Me)-Trp-NH2] (Ac-[dPhe(2,4-Cl2)][Hyp]NTF[βAla][NMeL][Arg(Me)]W-NH2)

Further lines, the molecule ahead of its results:

SMILES | EC50 [nM]
CNC(=N)NCCC[C@H](NC(=O)[C@H](CC(C)C)NC(=O)c1cnc([C@H](Cc2ccccc2)NC(=O)[C@@H](NC(=O)[C@H](CC(N)=O)NC(=O)[C@@H]2C[C@@H](O)CN2C(=O)[C@@H](Cc2ccc(O)cc2)NC(C)=O)[C@@H](C)O)[nH]1)C(=O)N[C@@H](Cc1c[nH]c2ccccc12)C(N)=O [YA-208, Ac-(D-Tyr)-Hyp-Asn-Thr-{(S)-2-(1-amino-2-phenylethyl)-1H-imidazole-5-carboxylic acid}-Leu-Arg(Me)-Trp-NH2] (Ac-[dY][Hyp]NT[X14]L[Arg(Me)]W-NH2) | 1.09
CNC(=N)NCCC[C@H](NC(=O)[C@H](CC(C)C)NC(=O)NNC(=O)[C@H](Cc1ccccc1)NC(=O)[C@@H](NC(=O)[C@H](CC(N)=O)NC(=O)[C@@H]1C[C@@H](O)CN1C(=O)[C@@H](Cc1ccco1)NC(C)=O)[C@@H](C)O)C(=O)N[C@@H](Cc1c[nH]c2ccccc12)C(N)=O [YA-43, Ac-(D-2Fua)-Hyp-Asn-Thr-Phe-azaGly-Leu-Arg(Me)-Trp-NH2] (Ac-[dAla(2-furyl)][Hyp]NTF[azaGly]L[Arg(Me)]W-NH2) | 0.095
CNC(=N)NCCC[C@H](NC(=O)[C@H](CC(C)C)NC(=O)NNC(=O)[C@H](Cc1ccccc1)NC(=O)[C@@H](NC(=O)[C@H](CC(N)=O)NC(=O)[C@H](Cc1cccs1)NC(=O)[C@@H](Cc1ccc(Cl)cc1Cl)NC(C)=O)[C@@H](C)O)C(=O)N[C@@H](Cc1c[nH]c2ccccc12)C(N)=O [YA-178, Ac-[D-Phe(2,4-DiCl)]-Thi-Asn-Thr-Phe-azaGly-Leu-Arg(Me)-Trp-NH2] (Ac-[dPhe(2,4-Cl2)][2Thi]NTF[azaGly]L[Arg(Me)]W-NH2) | 0.011
CNC(=N)NCCC[C@H](NC(=O)[C@H](CC(C)C)NC(=O)[C@@H]1Cc2ccccc2N1C(=O)[C@H](Cc1ccccc1)NC(=O)[C@@H](NC(=O)[C@H](CC(N)=O)NC(=O)[C@@H]1C[C@@H](O)CN1C(=O)[C@@H](Cc1ccc(O)cc1)NC(C)=O)[C@@H](C)O)C(=O)N[C@@H](Cc1c[nH]c2ccccc12)C(N)=O [YA-221, Ac-D-Tyr-Hyp-Asn-Thr-Phe-Ind-Leu-Arg(Me)-Trp-NH2] (Ac-[dY][Hyp]NTF[X12]L[Arg(Me)]W-NH2) | 0.64
CNC(=N)NCCC[C@H](NC(=O)[C@H](CC(C)C)NC(=O)c1nnc([C@H](Cc2ccccc2)NC(=O)[C@@H](NC(=O)[C@H](CC(N)=O)NC(=O)[C@@H]2C[C@@H](O)CN2C(=O)[C@@H](Cc2ccc(O)cc2)NC(C)=O)[C@@H](C)O)[nH]1)C(=O)N[C@@H](Cc1c[nH]c2ccccc12)C(N)=O [YA-209, Ac-(D-Tyr)-Hyp-Asn-Thr-{(S)-5-(1-amino-2-phenylethyl)-4H-1,2,4-triazole-3-carboxylic acid}-Leu-Arg(Me)-Trp-NH2] (Ac-[dY][Hyp]NT[X11]L[Arg(Me)]W-NH2) | 1.4
CC(=O)N[C@@H](Cc1ccc(O)cc1)C(=O)N[C@@H](CC(N)=O)C(=O)N[C@@H](Cc1c[nH]c2ccccc12)C(=O)N[C@@H](CC(N)=O)C(=O)N[C@@H](CO)C(=O)N[C@@H](Cc1ccccc1)C(=O)NCC(=O)N[C@@H](CC(C)C)C(=O)N[C@@H](CCCNC(=N)N)C(=O)N[C@@H](Cc1ccccc1)C(N)=O [YA-2, Ac-Tyr-Asn-Trp-Asn-Ser-Phe-Gly-Leu-Arg-Phe-NH2] | 10
CCCCCCCCCCCC(=O)NCCOCCOCCOCCOCCOCCn1cc(CC(=O)N[C@H](Cc2ccc(O)cc2)C(=O)N2C[C@H](O)C[C@H]2C(=O)N[C@@H](CC(N)=O)C(=O)N[C@H](C(=O)N[C@@H](Cc2ccccc2)C(=O)NCNC(=S)C(CC(C)C)C(=O)N[C@@H](CCCNC(=N)NC)C(=O)N[C@@H](Cc2c[nH]c3ccccc23)C(N)=O)[C@@H](C)O)nn1 (stereo partly drawn) [YA-348, M10 [Dodecanoyl-PEG5-1,2,3- Triazole cyclic-Acetyl, D-Tyr45, Hyp46, des47, Thr49, Gψ(NHCS)51, Arg(Me)53, Trp54]] (X2-[dY][Hyp]NTF[X9][Arg(Me)]W-NH2) | 0.019
CNC(=N)NCCC[C@H](NC(=O)[C@H](CC(C)C)NC(=O)NNC(=O)[C@H](Cc1ccccc1)NC(=O)[C@@H](NC(=O)[C@H](CC(N)=O)NC(=O)[C@@H]1C[C@@H](O)CN1C(=O)[C@@H](Cc1cccc(Cl)c1)NC(C)=O)[C@@H](C)O)C(=O)N[C@@H](Cc1c[nH]c2ccccc12)C(N)=O [YA-215, Ac-[D-Phe(3-Cl)]-Hyp-Asn-Thr-Phe-azaGly-Leu-Arg(Me)-Trp-NH2] (Ac-[dPhe(3-Cl)][Hyp]NTF[azaGly]L[Arg(Me)]W-NH2) | 0.122
CNC(=N)NCCC[C@H](NC(=O)[C@H](CC(C)C)NC(=O)[C@@H]1CCN1C(=O)[C@H](Cc1ccccc1)NC(=O)[C@H](Cc1ccco1)NC(=O)[C@H](CC(N)=O)NC(=O)[C@@H]1CC(F)(F)CN1C(=O)[C@@H](Cc1ccc(O)cc1)NC(C)=O)C(=O)N[C@@H](Cc1c[nH]c2ccccc12)C(N)=O [YA-205, Ac-(D-Tyr)-DiFluorPro-Asn-2Fua-Phe-Aze-Leu-Arg(Me)-Trp-NH2] (Ac-[dY][Pro(4,4-F2)]N[Ala(2-furyl)]F[Aze]L[Arg(Me)]W-NH2) | 50.3

same assay, conditions: NFAT-bla CHO-K1 cells that express human kiss1 receptor (GPR54); FRET; cells cultured with compound for 4 hours; read-out: GPR54 EC50/nM

EC50 [nM] | SMILES
24.3 | CNC(=N)NCCC[C@H](NC(=O)[C@H](CC(C)C)NC(=O)[C@@H]1CCN1C(=O)[C@H](Cc1ccccc1)NC(=O)[C@@H](NC(=O)[C@H](CC(N)=O)NC(=O)[C@@H]1C[C@@H](O)CN1C(=O)[C@H](Cc1ccc(F)cc1)NC(C)=O)[C@@H](C)O)C(=O)N[C@@H](Cc1c[nH]c2ccccc12)C(N)=O [YA-190, Ac-Phe(4-F)-Hyp-Asn-Thr-Phe-Aze-Leu-Arg(Me)-Trp-NH2] (Ac-[Phe(4-F)][Hyp]NTF[Aze]L[Arg(Me)]W-NH2)
2.11 | CC(=O)N[C@@H](Cc1ccc(O)cc1)C(=O)N[C@@H](CC(N)=O)C(=O)N[C@@H](Cc1c[nH]c2ccccc12)C(=O)N[C@@H](CC(N)=O)C(=O)N[C@@H](CO)C(=O)N[C@@H](Cc1ccccc1)C(=O)NCC(=O)N[C@@H](CC(C)C)C(=O)N[C@@H](CCCNC(=N)N)C(=O)N[C@@H](Cc1ccccc1)C(N)=O [YA-2, Ac-Tyr-Asn-Trp-Asn-Ser-Phe-Gly-Leu-Arg-Phe-NH2]
